# Patent US10278956B1, “Use of intravenous melatonin in patients with ST-elevation myocardial infarction” (priority 2018, dated 2019)
# “Also recorded” adds a separate entry of the source.
# Experiments:
# [1] = test system: closed-chest porcine model; conditions: combined intracoronary and intravenous treatment; cited from earlier work
# [2] = test system: patients with ST-segment elevation myocardial infarction (STEMI); conditions: earlier published trial; cited from earlier work
# STEMI-patients = test: Pilot randomized, double-blinded, placebo controlled study of intravenous melatonin before pPCI; infarct size by CMR; type: in vivo, human
# Protocol: This pilot study is a prospective, randomized, double-blinded, placebo controlled study of consecutive patients admitted with a STEMI. Additional inclusion criteria were presented within 6 hours of chest pain onset and occlusion of culprit artery with TIMI basal flow grade 0 to 1. Patients randomised to intravenous melatonin received a dose of 12 mg (51.7 μmol, in saline solution, in a volume of 50 ml in an opaque syringe) given by a time period of 60 minutes starting immediately before primary percutaneous coronary intervention (pPCI), by via a catheter positioned within a peripheral vein. The control group received a matching intravenous placebo formulation.
# A total of 31 patients were enrolled. Groups were well balanced for age, gender, and cardiovascular risk factors. No significant differences were observed between groups concerning baseline clinical and angiographic characteristics. Randomized patients were divided in 2 groups: Group 1 (patients with ischemia duration 3 hours) and Group 2 (patients with ischemia duration >3 hours). Group 1 there had 17 patients (8 treated with melatonin and 9 with placebo) and in the group 2 there were 14 patients (6 treated with melatonin and 8 with placebo).
# Myocardial infarct size was calculated as percentage of left ventricular mass by cardiovascular magnetic resonance (CMR).
# [3] = Group 1 (≤3 hours ischemia duration), 12 mg intravenous over 60 min starting immediately before pPCI, CMR, *P < 0.01 vs Placebo
# [4] = Group 2 (>3 hours ischemia duration), 12 mg intravenous over 60 min starting immediately before pPCI, CMR
smiles,measurement,setting,value
"COc1ccc2[nH]cc(CCNC(C)=O)c2c1 [Melatonin, melatonin]",Myocardial reperfusion injury,[1],did not reduce myocardial reperfusion injury
same,Effect on ventricular volumes and LVEF evolution,[2],unfavorable effect
same,Myocardial infarct size (MIS) compared with placebo,[2],failed to reduce myocardial infarct size
same,Infarct size (g),STEMI-patients; [3],16.53 ± 7.28* g
same,Infarct size (proportion of left ventricular mass) %,STEMI-patients; [3],17.71 ± 7.55* %
same,Infarct size,STEMI-patients; [4],25.69 ± 7.34 g
same,Infarct size (proportion of left ventricular mass) %,STEMI-patients; [4],20.62 ± 5.37%
same,Myocardial infarct size compared with placebo,"STEMI-patients; intravenous, given within 3 hours or less after symptom onset (group 1)",significantly reduces myocardial infarct size; also recorded: significantly smaller
same,Effect on myocardial infarct size compared with placebo,STEMI-patients; time from symptom onset to melatonin administration longer than 3 hours,significantly reduced or even opposite effect
